Measured values from patent publication US12077537B2 (Gilead Sciences, Inc., priority 2020, dated 2024).
pEC50: −log10 of the molar value.

Test system: HIV-IIIb
Test: Antiviral assay in MT4 cells
Assay type: cell-based
Conditions: Human immunodeficiency virus 1, MT4, 120 h; MT-4 cells mixed with HIV-IIIb at m.o.i. 0.003; 5 days at 37° C.; CellTiter-Glo luminescence; 50% decrease in signal, a measure of HIV-1 replication
In short: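 Compound, tested at ten 3-fold dilutions in quadruplicate in 10% FBS medium, received MT-4 cells pre-mixed 1 hour with HIV-IIIb (m.o.i. 0.003). Protection was read as luminescent cell viability (CellTiter-Glo) after 5 days' culture at 37° C.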

| SMILES | pEC50 |
| --- | --- |
| NC(=O)c1cc(-c2cc3sc(N4CCN(c5ccc(Cl)cc5)CC4)nc3nc2[C@H](Cc2cc(F)cc(F)c2)NC(=O)Cn2nc(C(F)(F)F)c3c2C(F)(F)[C@@H]2C[C@H]32)ccc1F [Compound 140, 5-(2-(4-(4-chlorophenyl)piperazin-1-yl)-5-((S)-1-(2-((3bS,4aR)-5,5-difluoro-3-(trifluoromethyl)-3b,4,4a,5-tetrahydro-1H-cyclopropa[3,4]cyclopenta[1,2-c]pyrazol-1-yl)acetamido)-2-(3,5-difluorophenyl)ethyl)thiazolo[4,5-b]pyridin-6-yl)-2-fluorobenzamide] | 5.86 |
| Cn1nc(NS(C)(=O)=O)c2cccc(-c3cc4sc(N5CCN(C6COC6)CC5)nc4nc3[C@H](Cc3cc(F)cc(F)c3)NC(=O)Cn3nc(C(F)(F)F)c4c3C(F)(F)[C@@H]3C[C@H]43)c21 [Example 76, 2-((3bS,4aR)-5,5-difluoro-3-(trifluoromethyl)-3b,4,4a,5-tetrahydro-1H-cyclopropa[3,4]cyclopenta[1,2-c]pyrazol-1-yl)-N—((S)-2-(3,5-difluorophenyl)-1-(6-(1-methyl-3-(methylsulfonamido)-1H-indazol-7-yl)-2-(4-(oxetan-3-yl)piperazin-1-yl)thiazolo[4,5-b]pyridin-5-yl)ethyl)acetamide] | 8.35 |
| Cn1nc(NS(C)(=O)=O)c2cccc(-c3cc4sc(N5CC6(CNC6)C5)nc4nc3[C@H](Cc3cc(F)cc(F)c3)NC(=O)Cn3nc(C(F)(F)F)c4c3C(F)(F)[C@@H]3C[C@H]43)c21 [Example 87, 2-((3bS,4aR)-5,5-difluoro-3-(trifluoromethyl)-3b,4,4a,5-tetrahydro-1H-cyclopropa[3,4]cyclopenta[1,2-c]pyrazol-1-yl)-N—((S)-2-(3,5-difluorophenyl)-1-(6-(1-methyl-3-(methylsulfonamido)-1H-indazol-7-yl)-2-(2,6-diazaspiro[3.3]heptan-2-yl)thiazolo[4,5-b]pyridin-5-yl)ethyl)acetamide] | 6.57 |
| Cn1nc(NS(C)(=O)=O)c2cccc(-c3cc4sc(N5CCC(C)(C(N)=O)CC5)nc4nc3C(Cc3cc(F)cc(F)c3)NC(=O)Cn3nc(C(F)(F)F)c4c3C(F)(F)[C@@H]3C[C@H]43)c21 (stereo partly drawn) [Example 127, 1-(5-(1-(2-((3bS,4aR)-5,5-difluoro-3-(trifluoromethyl)-3b,4,4a,5-tetrahydro-TH-cyclopropa[3,4]cyclopenta[1,2-c]pyrazol-1-yl)acetamido)-2-(3,5-difluorophenyl)ethyl)-6-(1-methyl-3-(methylsulfonamido)-1H-indazol-7-yl)thiazolo[4,5-b]pyridin-2-yl)-4-methylpiperidine-4-carboxamide] | 7.50 |
| C[Si](C)(C)CCn1ccnc1-c1ccc(N2CCN(c3nc4nc([C@H](Cc5cc(F)cc(F)c5)NC(=O)Cn5nc(C(F)(F)F)c6c5C(F)(F)[C@@H]5C[C@H]65)c(-c5ccc(F)c(C(N)=O)c5)cc4s3)CC2)cc1 [Compound 28-2, 5-(5-((S)-1-(2-((3bS,4aR)-5,5-difluoro-3-(trifluoromethyl)-3b,4,4a,5-tetrahydro-1H-cyclopropa[3,4]cyclopenta[1,2-c]pyrazol-1-yl)acetamido)-2-(3,5-difluorophenyl)ethyl)-2-(4-(4-(1-(2-(trimethylsilyl)ethyl)-1H-imidazol-2-yl)phenyl)piperazin-1-yl)thiazolo[4,5-b]pyridin-6-yl)-2-fluorobenzamide] | ≤ 4.27 |
| N#Cc1cc(-c2cc3scnc3nc2[C@H](Cc2cc(F)cc(F)c2)NC(=O)Cn2nc(C(F)F)c3c2C(F)(F)CCC3(F)F)ccc1F [Compound 15E, (S)—N-(1-(6-(3-cyano-4-fluorophenyl)thiazolo[4,5-b]pyridin-5-yl)-2-(3,5-difluorophenyl)ethyl)-2-(3-(difluoromethyl)-4,4,7,7-tetrafluoro-4,5,6,7-tetrahydro-1H-indazol-1-yl)acetamide] | 5.58 |
